Data reported in the METLIN SMRT retention time set (Domingo-Almenara et al. 2019).

Assay: gradient 5% acetonitrile 3 min, to 50% in 2 min, to 85% in 15 min, held 3 min, 100 µL/min
Conditions: column: Zorbax Extend-C18 2.1 x 50 mm; eluents: water / acetonitrile, 0.1% formic acid
Outline: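 The mobile phases were water and acetonitrile, each with 0.1% formic acid, pumped at 100 μL/min through a Zorbax Extend-C18 column (2.1 × 50 mm, 1.8 μm). Pure standards were injected as mixtures of ~100 molecules and detected by a quadrupole time-of-flight mass spectrometer in positive and negative ionization mode. Retention time came from computationally picked adduct peaks, each inspected by hand.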

SMILES	RP-LC retention time [s]
CCOc1ccc(CC(=O)N2CCN(S(=O)(=O)c3cc4c5c(c3)CCC(=O)N5CCC4)CC2)cc1	823
CC1CCN(C(=O)C2CCN(c3nc4ccc(-c5cccnc5)nc4s3)CC2)CC1	630
Cc1ccc(-c2ncc(NC(=O)C(C)(C)C)cn2)cc1	968
Cc1ccc(-c2nc3n(CC(=O)NC4CCCC4)c4c(c(=O)n3n2)CCC4)cc1	789
COc1ccc(OC)c(S(=O)(=O)N2CCC(n3c(C)cnc3C)CC2)c1	630
CCCCN(C)C(=O)C1CCN(S(=O)(=O)c2ccc3c(c2)CCCC(=O)N3)CC1	719
COc1cc(NC(=O)C2CCCN(c3nc4ccccc4nc3C(F)(F)F)C2)cc(OC)c1 (centres undefined)	1180
CCn1cnc(S(=O)(=O)N2CCC(C(=O)Nc3ccc(OC)cc3)CC2)c1	666
O=C(c1ccnc(N2CCNC(c3ccccc3)C2)c1)N1CCCN(c2ncccn2)CC1 (centres undefined)	596
Clc1ccc(-c2csc(Cc3nc(-c4ccccc4)no3)n2)cc1	1310
O=C(CN1CCc2[nH]c3c(F)c(Cl)ccc3c(=O)c2C1)Nc1ccc2c(c1)OCCO2	643
O=C(NC1CCN(c2cc(-c3cccs3)[nH]n2)C1)c1ccccc1Br (centres undefined)	705
CCOC(=O)C1=C(CN2CCN(C3CCCCC3)CC2)NC(=O)NC1c1ccccc1 (centres undefined)	658
O=C1CC(c2nc(-c3ccc(Cl)cc3)no2)CN1c1ccc2c(c1)OCCO2 (centres undefined)	1040
O=[N+]([O-])c1ccc(CSc2nc3ccccc3o2)cc1	1020
Cc1ccc(S(=O)(=O)Nc2ccc(-c3cn4ccc(C)nc4n3)cc2)cc1	646
COCCN1CCC2(CC1)CN(Cc1ccc(OC)c(C)c1)Cc1ccccc1O2	598
CCN1C(=O)c2cc(C(=O)N3CCN(c4ccccc4F)CC3)nn2CC1(C)C(=O)NC1CCCC1 (centres undefined)	840
COc1ccc(NC(=O)CSc2nccc(N3CCN(c4cc(C)ccc4C)CC3)n2)c(OC)c1	980
CNC(=O)c1noc([C@@H]2CC(F)(F)CN2C(=O)C2CC=CC2)n1	698
CC1=C(c2ccccc2)S(=O)(=O)N=C1N1CCCN(C(=O)c2ccccn2)CC1	693

SMILES	RP-LC retention time [s]
N#Cc1ccc(NS(=O)(=O)c2c[nH]c3ncccc23)cc1	686
COc1ccc(N2CCN(c3cc(SCC(=O)Nc4cccc(OC)c4)ncn3)CC2)cc1	894
CCc1ccccc1S(=O)(=O)NCC(c1cccnc1)c1cn(C)c2ccccc12 (centres undefined)	787
O=C(NCC1CCCO1)C1CCN(C(=O)c2cccn2-c2cccnc2)CC1 (centres undefined)	602
CCc1noc([C@@H]2CC(F)(F)CN2C(=O)c2cocn2)n1	733
Cc1noc2nc(CCC(=O)NCCCN3CCc4ccccc4C3)nc(N3CCCCCC3)c12	695
Cc1cccc(S(=O)(=O)N2C[C@H](c3nc(-c4cccnc4)no3)[C@@H](C)C2)c1	914
CCN1CCn2cc(S(=O)(=O)Nc3ccc(F)cc3Cl)cc2C1=O	736
COc1ccc(C(O)CN2CCN(c3ccccc3F)CC2)cc1 (centres undefined)	660
CCCc1nc(-c2ccccc2)oc1CC(=O)N1CCN(c2ccccc2F)CC1	1090
CNC(=O)Nc1ccc(C2(C(=O)NC3CCCC3)CCC2)cc1	692
Cc1cnc(CC2CCN(C(=O)C(C)C)C2)n1C(C)C (centres undefined)	578
Cc1ccc(-n2ncc3c(NCc4ccc5c(c4)OCO5)ncnc32)cc1	939
CCCN1CCN(c2cc(C(=O)O)c3cc(NS(=O)(=O)c4ccc(C)cc4C)ccc3n2)CC1	937
COc1ccc(S(=O)(=O)N2CCC(c3nc(C(=O)N4CCOCC4)c(C)o3)CC2)cc1	752
CCCCN(CCCC)CCCOC(=O)c1ccc(N)cc1	738
O=C(Cn1c(=O)c2cc(C3CC3)nn2c2ncccc21)N1CCc2ccccc21	808
CN1CCN(C(=O)c2cn(-c3cc(N4CCSCC4)ncn3)cn2)CC1	593
CC(C)CC(=O)N1CCC(CC(=O)N2CCOCC2)C1 (centres undefined)	622
CCOC(=O)C1=C(CN2CCC(C(=O)OCC)CC2)NC(=O)NC1c1ccc(F)cc1 (centres undefined)	650
CCCCN1C(=O)C2(NCCc3c2[nH]c2ccc(OC)cc32)c2cc(Br)ccc21 (centres undefined)	763

Other lines, results leading:

RP-LC retention time [s]	SMILES
552	COc1ccccc1CNC1CCN(c2ccc(C(=O)NC3CC3)cn2)C1 (centres undefined)
947	CC(C)CN(CC(C)C)C(=O)CCCN1C(=O)c2ccccc2C1=O
889	Cc1sc2ccn(CC(C)C)c(=O)c2c1C(=O)NCc1ccco1
588	CCNC(=O)c1c2c(nc3ccc(F)cc13)CCCC2
556	O=C(CSc1nnc(CCc2nc3ccccc3[nH]2)o1)Nc1nccs1
948	Cc1cc(NS(=O)(=O)c2cn(C(C)C)c3ncccc23)ccc1F
998	Cc1cccc(CNC(=O)CN2C(=O)CCc3cc(S(=O)(=O)N4CCCCC4C)ccc32)c1 (centres undefined)
579	CCNC(=O)NCCc1cn(CCOC)c2ncccc12
612	CCCNC(=O)NCCc1cn(CC)c2ncccc12
897	COc1cc(OC)cc(C(=O)Nc2nc(-c3ccc4c(c3)NC(=O)CO4)cs2)c1
847	CCC(C)C(NC(=O)c1ccc(C(F)(F)F)cc1)C(=O)Nc1nc2ccccc2[nH]1 (centres undefined)
1260	Cn1cc(-c2nc(C(=O)Nc3cc(F)ccc3Cl)cs2)c2cccnc21
708	Cn1cccc1Cc1nnc(SCC(=O)NCc2ccco2)n1Cc1ccccc1
745	CC(C)CC(=O)N1CCc2c(c(C(=O)NCc3ccc4c(c3)OCO4)nn2C)C1
1030	CCCc1sc(Nc2ccccc2OCC)nc1-c1ccc(Cl)c(Cl)c1
764	CCCCNC(=O)C1c2cc(OC)c(OC)cc2C(=O)N(C)C1c1ccc(OC)cc1 (centres undefined)
743	COCCCNC(=O)Cn1c(=O)c(S(=O)(=O)c2ccccc2)cc2cc(C)ccc21
807	Cc1ccc(-n2nc(C)c(S(=O)(=O)N3CCC(C(=O)NCC4CCCO4)CC3)c2C)cc1 (centres undefined)
949	CCOc1ccc(-n2nnnc2CNS(=O)(=O)c2ccc(CC)s2)cc1
771	Cn1ncc(NC(=O)c2ccc(Cl)cc2)c(N2CCOCC2)c1=O
1030	COc1ccc(NC(=O)c2sc(-c3cn(C(C)C)c4ncccc34)nc2C)c(OC)c1
568	O=C(NCc1ccco1)C(=O)NCC(c1cccnc1)N1CCOCC1 (centres undefined)
622	CN(C)c1ccc(CN2C(=O)CN(S(C)(=O)=O)CC2(C)C(=O)NCc2ccccc2)cc1 (centres undefined)
913	O=C(NCc1ccccc1Cl)C1=C2CCCN2c2ccc(F)cc2S1(=O)=O

RP-LC retention time [s]	SMILES
790	O=C(CS(=O)(=O)Cc1ccccc1)Nc1nc2cc3c(cc2s1)OCO3
640	Cc1ccc(Nc2nc(C)cc3nn(CC(=O)NC4CCCC4)c(=O)n23)cc1
600	CN(C)CCNC(=O)c1ncn2c1C(=O)N(C1CC1)C(C)(C(=O)NCc1ccc(F)cc1)C2 (centres undefined)
931	COc1ccc(Cl)cc1NC(=O)NC1CCN(c2ccc(C)cc2)C1=O (centres undefined)
914	CCOc1ccc(S(=O)(=O)N2CCC(C(=O)NCc3csc(-c4cccs4)n3)CC2)cc1
1060	Cc1ccccc1CNC(=O)C1(C)CCCN(C(=O)Nc2cccc(Cl)c2C)C1 (centres undefined)
804	O=C(Cn1nc(N2CCOCC2)c2ccccc2c1=O)Nc1ccccc1C(F)(F)F
1070	Cc1cc2c(cc1C)N(CC(=O)Nc1ccc(F)cc1F)C(=O)CC(c1cccs1)=N2
749	O=C(NCc1cccc(Cl)c1)C1CC(=O)N(c2n[nH]c3cccc(F)c23)C1 (centres undefined)
1010	CCCc1ccc(S(=O)(=O)N2CCC(n3c(-c4ccco4)nc4cccnc43)C2)cc1 (centres undefined)
1230	O=C(COc1cc(O)c2c(=O)c3ccccc3oc2c1)c1ccc(Cl)cc1
785	Cc1cccc(-c2ncccc2CNS(=O)(=O)c2ccc(Cl)s2)c1
664	COc1ccc(CNC(=O)c2[nH]c3cc(C)sc3c2CN(C)C)cc1
806	CN(C)C(=O)c1cnn(-c2cccc(F)c2)c1-n1cccc1
648	CCc1ccc(CNC(=O)c2cc3ccncc3n2C)cc1
796	CCCCN(CC)C(=O)C1CCCN(c2ccc(-c3ccc(C)cc3)nn2)C1 (centres undefined)
1240	CC(C)CN(CC(C)C)c1nc(-c2ccc(C(C)(C)C)cc2)nc2ccccc12
729	CC(C)CNC(=O)c1cc(=O)[nH]c2ccccc12
613	CC(C)c1cc(N2CCN(C(=O)Cc3cccs3)CC2)nc2nncn12
936	O=C(Cc1cccn1-c1ccccc1)NCc1cc(F)ccc1F
738	CCC(=O)N1CCc2cc(N3CC(C(=O)Nc4ccc(OC)c(F)c4)CC3=O)ccc21 (centres undefined)
1110	CCc1cccc(NC(=O)C2CCN(S(=O)(=O)c3cc(-c4noc(C5CC5)n4)cs3)CC2)c1
689	CC(C)NC(=O)C1CCN(c2cnn(Cc3ccccc3)c(=O)c2)CC1
